Test results from US20120178971A1, “Process for Isolation of a Novel Compound 5,8A-DI-1-Propyl 1-Octahydronapthalen-1-(2H) One,Trachyspermum AMI (Ajowan Caraway) Seeds” (ALIGARH MUSLIM UNIVERSITY, priority 2011, published 2012).
In brackets after ≈: the same amount, converted by molar mass.

How the values were obtained:
Streptococcus mutans [1] = assay: Determination of MIC; format: cell-based; conditions: against Streptococcus mutans
[2] = tested on: Streptococcus mutans biofilm; assay: Confocal laser scanning microscopy of Streptococcus mutans biofilm; format: cell-based; conditions: 78.13 μ/ml, 24 h incubation
Method: FIG. 4: CLSM images of Streptococccus mutans biofilm formed in the presence or absence of the compound after 24 h incubation. The results are expressed as the means ±standard deviations of triplicate assays.
The biofilm of Streptococcus mutans was analyzed under the confocal laser scanning microscope to observe the changes in its morphology as shown in FIG. 4. […] The cells in the treated sample were more spread out and dispersed. Each panel of the image is a representative view of 141.145 μm by 141.145 μm along the xy axis. The xy analysis provides the biofilm surface coverage, while the z-section analyses establish the thickness of the biofilm. The control cells have biofilms that are clumped and less spread along the xy lane, show a thickness of 19.74±0.5 μm. […] The cells wee individually scattered over the surface rather than in any arrangement.

Streptococcus mutans [3] = assay: Sucrose dependent cell adherence of Streptococcus mutans; format: cell-based
Description: FIG. 2: Inhibitory effect of the compound on the extent of sucrose dependent cell adherence of Streptococcus mutans. The % cell adherence is the relative amount (%) of adherent cells at different concentrations of the compound as compared to the cells attached in the absence of any compound. Each value is an average of triplicate assays and each bar indicates ±SD (n=3).

[4] = tested on: Streptococcus mutans biofilm; assay: Streptococcus mutans biofilm formation; format: cell-based
Method: FIG. 3: Inhibitory effect of the compound on the biofilm formed by Streptococcus mutans. The % biofilm formed is the relative (%) of biofilm formed at different concentrations of the compound as compared to that in the absence of any compound. Each value is an average of triplicate assays and each bar indicates ±SD (n=3)
The biofilm formation was assessed using increasing concentration of the compound. […] As observed in the adherence, the inhibitory effect was also found to be in a dose dependent manner.

Streptococcus mutans [5] = assay: Inhibition of acid production (pH of culture medium); format: cell-based
[6] = tested on: crude GTF of Streptococcus mutans; assay: Inhibition of water insoluble glucan synthesis; format: biochemical; conditions: 4.88 μl/ml
Method: FIG. 6: Inhibitory effects of the compound on insoluble glucan synthesis by crude GTF of Streptococcus mutans. The % insoluble glucan synthesis is the relative amount (%) ±SD (n=3)
The influence of different concentrations was assessed for the synthesis of insoluble glucan.

Streptococcus mutans [7] = assay: Cell surface hydrophobicity of Streptococcus mutans; format: cell-based; conditions: 9.76 μg/ml, compared to untreated condition
Description: FIG. 5: Inhibitory effect of compound on the hyrdophobicity of Streptococcus mutans where all the concentrations were taken in triplicates.
It was shown that the cell surface hydrophobocity of S. mutans is affected following treatment with the compound obtained from Trachyspermum ammi as shown in figure.

Streptococcus mutans [8] = assay: Inhibition of acid production (pH of culture medium); format: cell-based; remark: listed apart in the source
Method: […] At a concentration of 78.13 μg/ml, there is maximum reduction in acid production as is evident by an increase in pH from 4.7 (control) to 7.5.

CCCC1CCCC2(CCC)C(=O)CCCC12 (centres unmarked) [the compound, 5,8a-di-1 propyl-octahydronapthalen-1-(2H)-one]
MIC (Streptococcus mutans [1]): 156 µg/mL (≈ 661 µM) | biofilm morphology ([2]; CLSM): complete absence of clumped cells | thickness of the biofilm ([2]; CLSM z-section): 12.8±0.7 µm | reduction in adherence (Streptococcus mutans [3]; 9.77 μg/ml): 30% | least concentration to give at least 50% inhibition of adherence (Streptococcus mutans [3]; sucrose dependent adherence): 39.06 µg/mL | biofilm formation ([4]; 78.13 μg/ml): inhibited the biofilm formation | biofilm formation ([4]; 156.25 μg/ml (MIC)): completely inhibited the biofilm formation | pH ± SD (onset) (Streptococcus mutans [5]; 2.44 μg/ml): 7.28 ± 0.09 | pH ± SD (onset) (Streptococcus mutans [5]; 4.88 μg/ml): 7.24 ± 1.33 | pH ± SD (onset) (Streptococcus mutans [5]; 9.76 μg/ml): 7.33 ± 1.11 | pH ± SD (onset) (Streptococcus mutans [5]; 19.53 μg/ml): 7.38 ± 1.91 | pH ± SD (onset) (Streptococcus mutans [5]; 39.01 μg/ml): 7.43 ± 1.13 | pH ± SD (onset) (Streptococcus mutans [5]; 78.13 μg/ml): 7.43 ± 0.15 | pH ± SD (onset) (Streptococcus mutans [5]; 156.25 μg/ml): 7.38 ± 1.29 | reduction in the synthesis of insoluble glucan [6]: 25% | cell surface hydrophobicity (Streptococcus mutans [7]): drastically reduced the cell surface hydrophobicity to more than half | pH ± SD (after 24 h) (Streptococcus mutans [8]; 2.44 μg/ml): 4.77 ± 1.69 | pH ± SD (after 24 h) (Streptococcus mutans [8]; 4.88 μg/ml): 4.84 ± 1.20 | pH ± SD (after 24 h) (Streptococcus mutans [8]; 9.76 μg/ml): 5.49 ± 1.05 | pH ± SD (after 24 h) (Streptococcus mutans [8]; 19.53 μg/ml): 5.62 ± 1.96 | pH ± SD (after 24 h) (Streptococcus mutans [8]; 39.01 μg/ml): 5.68 ± 6.78 | pH ± SD (after 24 h) (Streptococcus mutans [8]; 78.13 μg/ml): 6.48 ± 5.97 | pH ± SD (after 24 h) (Streptococcus mutans [8]; 156.25 μg/ml): 7.55 ± 2.65
